Laboratory results: patent US20260224550A1, “PDE4 DEGRADERS, PHARMACEUTICAL COMPOSITIONS, AND THERAPEUTIC APPLICATIONS” (BioTheryX, Inc., priority 2023, published 2026)

Assays:
TNFα = test: Cell-based cytokine inhibition assay (PBMCs, anti-CD3/anti-CD28 stimulated, MSD kit): TNFα; details: PBMC, anti-CD3/anti-CD28 stimulation, 23 h with compound, relative to DMSO control
Method: (§1) Frozen primary blood mononuclear cells (PBMCs) were thawed and washed once with RPMI 1640 media supplemented with 10% fetal bovine serum, 1% penicillin, and 1% streptomycin. An anti-CD28 antibody at […] was added to the media as a co-stimulant. PBMCs were plated at 1×10^6 cells per well in a 96-well U bottom plate, which was pre-coated overnight with an anti-CD3 antibody at 1 μg/mL in PBS (100 μL/well). After the place was incubated for 1 h at 37° C. in a CO2 incubator, DMSO (control) or a compound was added. After the place was incubated for 23 h at 37° C. in a CO2 incubator, the cells were spun down at 1,500 rpm for 5 min. Supernatant media was collected for cytokine analysis using an MSD kit. Inhibitory activities of the compound were determined as a percentage of the DMSO control.

IL-2 = test: Cell-based cytokine inhibition assay (PBMCs, anti-CD3/anti-CD28 stimulated, MSD kit): IL-2; details: PBMC, anti-CD3/anti-CD28 stimulation, 23 h with compound, relative to DMSO control
Method: as §1

IL-10 = test: Cell-based cytokine inhibition assay (PBMCs, anti-CD3/anti-CD28 stimulated, MSD kit): IL-10; details: PBMC, anti-CD3/anti-CD28 stimulation, 23 h with compound, relative to DMSO control
Method: as §1

IFNγ = test: Cell-based cytokine inhibition assay (PBMCs, anti-CD3/anti-CD28 stimulated, MSD kit): IFNγ; details: PBMC, anti-CD3/anti-CD28 stimulation, 23 h with compound, relative to DMSO control
Method: as §1

[1] = test system: PDE4D, in particular, PDE4D short isoform; test: Protein degradation assay in A549 cells (western blot): PDE4D; assay type: cell-based; details: 24 h, same conditions
Method: A549 cells were grown in RPMI 1640 media supplemented with 10% fetal bovine serum, streptomycin, and penicillin. The cells were plated in 6-well plates at 300,000 cells/well in the growth media. After overnight incubation, the cells were treated with DMSO (control) or a compound at predetermined concentrations (e.g., 10 nM, 100 nM, 1 μM, 3 μM, or 10 μM) for 24 h at 37° C. under 5% CO2. Whole cell extracts were prepared using an immunoprecipitation (IP) lysis buffer. The cells were washed once in PBS, and the cell pellets were resuspended in the IP lysis buffer and incubated for 15 min on ice. Cells debris was removed by centrifugation and the cleared whole cell lysates were transferred to new tubes for further analysis.
For a western blot analysis, the whole cell protein extracts were separated on 4-12% SDS-polyacrylamide gels, transferred to nitrocellulose, and probed with primary antibodies. Membranes were subsequently washed and probed with IRDYE® secondary antibodies. The signals were detected using an ODYSSEY® Imaging System. The antibodies used in the assay included anti-PDE4B antibody; anti-PDE4D antibodies (top, bottom, and short isoform); β-actin mouse monoclonal antibody; IRDYE® 680RD goat anti-rabbit antibody; and IRDYE® 800CW goat anti-mouse antibody.

Row | IC50 (TNFα) | IC50 (IL-2) | IC50 (IL-10) | IC50 (IFNγ) | SMILES | degradation of PDE4D (result in words) [1]
1 | 0.3 nM | 0.2 nM | 0.3 nM | 0.9 nM | CCOc1cc([C@@H](CS(C)(=O)=O)N2C(=O)c3ccc(N4CCC(C5CCN(Cc6ccc(Oc7ccc8c(C9CCC(=O)NC9=O)nn(C)c8c7)cc6)CC5)CC4)cc3C2=O)ccc1OC (stereo partly drawn) [Compound B001, 5-(1′-(4-((3-(2,6-dioxopiperidin-3-yl)-1-methyl-1H-indazol-6-yl)oxy)benzyl)-[4,4′-bipiperidin]-1-yl)-2-((S)-1-(3-ethoxy-4-methoxyphenyl)-2-(methylsulfonyl)ethyl)-isoindoline-1,3-dione] | –
2 | 0.09 nM | 0.09 nM | 0.2 nM | 0.3 nM | CCOc1cc([C@@H](CS(C)(=O)=O)N2C(=O)c3ccc(N4CCN(CC5CCN(Cc6ccc(Oc7ccc8c(C9CCC(=O)NC9=O)nn(C)c8c7)cc6)CC5)CC4)cc3C2=O)ccc1OC (stereo partly drawn) [Compound B002, 5-(4-((1-(4-((3-(2,6-dioxopiperidin-3-yl)-1-methyl-1H-indazol-6-yl)oxy)benzyl)-piperidin-4-yl)methyl)piperazin-1-yl)-2-((S)-1-(3-ethoxy-4-methoxyphenyl)-2-(methylsulfonyl)-ethyl)isoindoline-1,3-dione] | –
3 | – | – | – | – | CCOc1cc([C@@H](CS(C)(=O)=O)N2C(=O)c3cccc(NC(C)=O)c3C2=O)ccc1OC [apremilast] | did not degrade
